Assay [1] concerns the target T1, Rhodococcus erythropolis NCIMB 11540 nitrile hydratase (Rhodococcus erythropolis, UniProt P13448+P13449).
T1 construct: made in house; host or cells: E. coli B BL21 (plasmid pMS470Nhase7.3 or pMSNhasetactac7.3), crude lysate
T1 sequence (P13448 1-207): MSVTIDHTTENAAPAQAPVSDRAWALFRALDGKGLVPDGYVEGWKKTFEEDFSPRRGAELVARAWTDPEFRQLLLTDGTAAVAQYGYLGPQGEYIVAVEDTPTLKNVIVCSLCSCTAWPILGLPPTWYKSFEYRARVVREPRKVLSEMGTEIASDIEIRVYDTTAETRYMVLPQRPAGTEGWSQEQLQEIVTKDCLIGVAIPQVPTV
T1 sequence (P13449 1-212): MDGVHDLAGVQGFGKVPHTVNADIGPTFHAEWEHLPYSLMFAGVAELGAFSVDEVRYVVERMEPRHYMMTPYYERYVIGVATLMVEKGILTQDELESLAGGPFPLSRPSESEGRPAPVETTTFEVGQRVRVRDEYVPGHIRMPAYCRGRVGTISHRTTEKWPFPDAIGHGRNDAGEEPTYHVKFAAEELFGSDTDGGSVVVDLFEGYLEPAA
Nature of the assay: Nitrile hydratase activity determination of crude lysates with methacrylonitrile. It is filed as biochemical. The settings on record: 40 mM methacrylonitrile in PBS, 28° C. How it is done: The E. coli B BL21 cells transformed by pMS470Nhase7.3 (or pMSNhasetactac7.3) were isolated on LB-ampicillin plates and an ONC of 100 ml of LB-ampicillin medium was inoculated with an individual colony. On the next morning a main culture consisting of 250 ml of LB-ampicillin medium was inoculated in a 1000 ml chicane flask to an OD600 of 0.01 to 0.03 (Beckmann Photometer). The growth temperature was controlled at 25° C., since at higher temperatures insoluble inclusion bodies are formed exclusively. After the induction density was reached (OD600=1 Beckmann Photometer), the cultures were induced by adding IPTG to give a concentration of 0.1 mM. In addition, the media were supplemented with 0.1 mM ammonium iron(III) citrate. After reaching an OD600>4, the cultures were harvested (centrifugation at approximately 3000-g for 15 min) and washed once with approximately 100 ml of PBS buffer. […]
Activity determination: crude lysates were diluted 1:10 with PBS buffer immediately before activity determination. […] After centrifugation (16 000·g, 10 minutes), the samples were analyzed spectrophotometrically at 224 nm (Perkin Elmer UV/VIS Spectrometer Lambda Bio). […]

The subject of assay [2] is Rhodococcus erythropolis NCIMB 11540 cells. Nature of the assay: Enzymatic hydrolysis using resting cells and lyophilized cells (Example 3). The assay is classed as cell-based. Conditions: approximately 20 mM substrate, 30° C. How it is done: The biocatalyst was produced in a similar manner to Example 1, Variant I, 2 culture flasks. After 20 hours (OD546=3.5 and 1.8), cells were centrifuged off from 4 times 10 ml aliquots of fermentation broth and washed once with K/Na—PO4 buffer (pH 6.5, 50 mM). Two of the cell samples were lyophilized before activity determination, and the other two were used as resting cells.
The cells were resuspended in 1.8 ml K/Na—PO4 buffer (pH 6.5, 50 mM) (lyophilized cells were shaken for 1 h for rehydration). The reaction was started by adding 200 μl of a 200 mM substrate solution in DMSO (substrate concentration approximately 20 mM) and carried out at 30° C. and 130 rpm in the shaking cabinet. After 30 min, 60 min and 17 h, 200 μl were withdrawn and admixed with 200 μl of 1N HCl. After centrifugation (5 min, 13 000 rpm) and dilution, the conversion rates were determined by means of HPLC. Only the substrate and the two products were taken into consideration in this. The substrate used was (R)-2-chloromandelonitrile (ee>99%). The results are shown in Tab. 3.

For assay [3] the test system is unchanged. Nature of the assay: Enzymatic hydrolysis using different cosolvents, Experiment 5.2. It is filed as cell-based. Conditions: 10 g/l, 30° C. How it is done:
Here, the solvents DMSO, EtOH and ^iPrOH were again used at a fraction of 5%; the substrate concentration was 10 g/l of (R)-2-chloromandelonitrile. The reaction was carried out on a 5 ml scale.
Production of the biocatalyst Example 4, Experiment 4.2 (OD546 8.4). In each case 4.75 ml of the cell suspension (resting cells, OD546 52) were used for the enzymatic reactions. Reactions of (R)-2-chloromandelonitrile (>99%) dissolved in DMSO, EtOH and i-PrOH were carried out in culture tubes at 150 rpm and 30° C. (parallel batches).
To monitor the conversion rate by means of HPLC, in each case 200 μl of sample were admixed with 200 μl of 1N HCl, centrifuged (5 min, 13 000 rpm) and diluted before measurement. After complete conversion, the ee of the product was determined. • a. 50 mg of (R)-2-chloromandelonitrile, dissolved in 250 μl of DMSO ([S]=60 mM, 10 g/l, cosolvent: 5% DMSO)

For assay [4] the test system is unchanged. The assay is described as follows: Enzymatic hydrolysis at different substrate concentrations, Experiment 4.2. The settings on record: 5% DMSO, 30° C., resting cells. It is filed as cell-based. As for the experimental part: In experiment 4.2, the reaction was carried out using 2 different substrate concentrations (10 g/l, 20 g/l) on a 5 ml scale.
The biocatalyst was produced according to Example 1, Variant II, 2 l fermentation medium, harvest after 19 hours (OD546 8.4). The cells were resuspended in approximately 140 ml of buffer (resting cells, OD546 52). In each case 4.75 ml of this cell suspension were used for the enzymatic reactions.
Two different concentrations of (R)-2-chloromandelonitrile were studied in parallel batches. The reaction was started by adding 250 μl of substrate solution and was carried out in culture tubes in the shaking cabinet at 30° C. and 130 rpm. To monitor the conversion rate, in each case 200 μl were withdrawn and admixed with 200 μl of 1N HCl. After centrifugation (5 min, 13 000 rpm) and dilution, the conversion rates were determined by HPLC. • a. 50 mg of (R)-2-chloromandelonitrile, dissolved in 250 μl of DMSO ([S]=60 mM, 10 g/l, cosolvent: 5% DMSO)

For assay [5] the test system is unchanged. The assay is described as follows: Enzymatic hydrolysis at different temperatures, Experiment 6.2. The assay is classed as cell-based. The settings on record: after 2 h, 10 g/l, 3% DMSO. How it is done:
In Experiment 6.2, the temperature was increased to 50° C.
The biocatalyst was produced according to Example 4, Experiment 4.3 (OD546 44). In each case 4.85 ml of the cell suspension (resting cells, OD546 44) were used for the enzymatic reactions. Reactions of 50 mg of (R)-2-chloromandelonitrile (>99%) ([S]=60 mM, 10 g/l), dissolved in 150 μl DMSO (3%) were carried out at 3 different temperatures (30° C., 40° C., 50° C.) in culture tubes at 150 rpm (parallel batches).
(§1) To monitor the conversion rate by means of HPLC, in each case 200 μl of sample were admixed with 200 μl of 1N HCl, centrifuged (5 min, 13 000 rpm) and diluted before measurement. After complete reaction, the ee of the product was determined.

The test system is the same in assay [6]. Nature of the assay: Enzymatic hydrolysis at different substrate concentrations, Experiment 4.3. The assay is classed as cell-based. The settings on record: after 2 h, 3% DMSO, 40° C., resting cells. How it is done:
In experiment 4.3, reactions were carried out using 10 g/l and 15 g/l of (R)-2-chloromandelonitrile. In addition, after complete conversion, the ee of the hydroxy acid formed was determined.
The biocatalyst was produced according to Example 1, Variant II, 2.75 l of the fermentation medium, harvest after 20 hours. The cells were resuspended in approximately 200 ml of buffer (resting cells, OD546 44). In each case 4.85 ml of this cell suspension were used for the enzymatic reactions.
Two different concentrations of (R)-2-chloromandelonitrile were studied in parallel batches. The reaction was started by adding 150 μl of substrate solution and was carried out in culture tubes in the shaking cabinet at 40° C. and 150 rpm. The conversion rate was monitored by means of HPLC. At complete conversion, the hydroxy acid was extracted after acidification and the ee was determined. • a. 50 mg of (R)-2-chloromandelonitrile, dissolved in 150 μl of DMSO ([S]=60 mM, 10 g/l, cosolvent: 3% DMSO)

Assay [7] shares this test system. Nature of the assay: Enzymatic hydrolysis at different temperatures, Experiment 6.1. The assay is classed as cell-based. The settings on record: after 2 h, 10 g/l, 5% DMSO. How it is done:
In Experiment 6.1, the course of the reaction was compared at reaction temperatures of 30° C., 35° C. and 40° C. The batches were carried out on a 5 ml scale using a substrate concentration of 10 g/l of (R)-2-chloromandelonitrile. After complete reaction, the ee of the product was determined.
The biocatalyst was produced according to Example 4, Experiment 4.2 (OD546 8.4). In each case 4.75 ml of the cell suspension (resting cells, OD546 52) were used for the enzymatic reactions. Reactions of 50 mg of (R)-2-chloromandelonitrile (>99%) ([S]=60 mM, 10 g/l), dissolved in 250 μl of DMSO (5%) were carried out at 3 different temperatures (30° C., 35° C., 40° C.) in culture tubes at 150 rpm (parallel batches).
as §1

The mark [8] stands for this setting: lyophilized cells (19 mg/ml), 30 min.
[9] abbreviates: lyophilized cells (19 mg/ml), 60 min.
Setting [10] is: lyophilized cells (19 mg/ml), 17 h.
The mark [11] stands for this setting: resting cells, 30 min, culture 1 (OD546 3.5).

Structures are written as SMILES.

`C=C(C)C#N` [methacrylonitrile]: the figures for the “typical activity of crude lysates” value in assay [1] (pMS470Nhase7.3 lysate) and in assay [1] (pMSNhasetactac7.3 lysate) were 100-250 U/ml and 350-500 U/ml, respectively.

Turning to `N#C[C@H](O)c1ccccc1Cl` [(R)-2-chloromandelonitrile], the “Conversion rate CH (cyanohydrin)” value in assay [2] (setting [8]) is recorded as 40%; in assay [2] (setting [9]), 41%; in assay [2] (setting [10]) it was 43%; in assay [2] (setting [11]), 100%. Besides, the “Conversion rate HA (hydroxyamide)” value is less than 1% in assay [2] (setting [8]); 0% in assay [2] (setting [9]); less than 1% in assay [2] (setting [10]); 2% in assay [2] (setting [11]); 4% in assay [2] (resting cells, 60 min, culture 1 (OD546 3.5)); 42% in assay [2] (resting cells, 17 h, culture 1 (OD546 3.5)). For the same compound, the hydroxy acid formed entry in assay [3] (after 2 h, cosolvent 5% DMSO) is recorded as “approximately 40%”; in assay [3] (after 3 h, cosolvent 5% EtOH), 35%; in assay [3] (after 3 h, cosolvent 5% i-PrOH) it was 8%; in assay [3] (after 44 h, cosolvent 5% i-PrOH), 64%; in assay [4] (after 2 h, 10 g/l (60 mM)), “approximately 40%”; in assay [4] (after 18 h, 20 g/l (120 mM)) it was 36%. Also, the hydroxy acid formed is listed as 41% in assay [4] (after 43 h, 20 g/l (120 mM)); 42% in assay [5] (T=30° C.); 80% in assay [5] (T=40° C.); 92% in assay [5] (T=50° C.); 80% in assay [6] (10 g/l (60 mM)); “approximately 60%” in assay [6] (15 g/l (90 mM)). Besides, the hydroxy acid formed in assay [7] (T=30° C.) is 42%; in assay [7] (T=35° C.) it was 65%; in assay [7] (T=40° C.) it was 86%. For the same compound, the “hydrolysis to form the hydroxy acid complete” value in assay [3] (after 19 h, cosolvent 5% EtOH) worked out at 94%.

For the origin of these results see patent US7514245B2, “Method for producing chiral α-hydroxycarboxylic acids by enzymatic hydrolysis of chiral cyanohydrins” (DSM Fine Chemicals Austria NFG GmbH & Co. KG, priority 2003, dated 2009).
